Measurements taken from US6391840B1, “Multiple component bleaching compositions” (Unilever Home & Personal Care USA, division of Conopco, Inc., priority 1999, dated 2002).

Key:
[1] = Stability tests of imine quat in the presence of hydrogen peroxide at various pH (1H NMR integral ratio; permanganate titration); type: physicochemical
Protocol: The stability of N-methyl-3,4 dihydroisoquinolinium tosylate in the presence of hydrogen peroxide was tested at various pH values. To this end samples were prepared containing 6.0% w/w hydrogen peroxide, 2.0% w/w of the imine quat and 0.01% w/w Dequest™ 2047 (ethylenediamine-tetra[methylene-phosphonic acid] sodium salt, a sequestrant marketed by Monsanto). This is equivalent to a partial composition which together with a second partial composition of the same volume would lead to a final composition with 3% hydrogen peroxide and 1% imine quat.
The pH of the samples was adjusted using 1.0M hydrochloric acid or 2.0M sodium hydroxide as required. During the test the pH of the samples was re-adjusted as indicated using 2.0M sodium hydroxide.
The hydrogen peroxide content was determined by titration against 0.02 M potassium permanganate. […] Complete reaction of 1 equivalent of hydrogen peroxide with 1 equivalent of imine quat would result in a decrease in hydrogen peroxide concentration of 0.2% w/w.
Imine quat stability was monitored using ^1H NMR spectroscopy, by comparing the ratio of the integrals of the iminium proton which appears at 8.85 ppm relative to TMS, with those for the aromatic protons on the inert tosylate counter-ion, which are observed at 7.65 ppm. Loss of imine quat (e.g. through reaction with hydrogen peroxide) is observed as a decrease in the iminium:tosylate integral ratio, and % of imine quat remaining is calculated as integral ratio after storage÷initial integral ratio.

[2] = tested on: black mould (Cladosporium cladosporoides), autoclaved mould paste; assay: Bleaching of autoclaved black mould paste on porous ceramic tiles, expert panel score 0-6
Protocol: Hydrogen peroxide solutions with and without imine quat (N-methyl-3,4-dihydroisoquinolinium tosylate) and at various pH values were tested on their ability to bleach black mould in comparison with sodium hypochlorite, which is the standard product used to clean black mould stains. The hydrogen peroxide solutions were all freshly prepared just before testing so as to mimic compositions obtained by mixing appropriate partial compositions on dispensing. In order to obtain reproducible results an autoclaved mould paste was used for the testing.
Cultures of hyphal Cladosporium cladosporoides were prepared on agar jelly. Warm water was used to dissolve the jelly and separate it from the mould hyphae, which were then autoclaved. […]
Small circular pieces of single ply tissue paper were cut to a convenient size and placed on the surface of the ‘mould tile’ test pieces, such that the edges of the test pieces remain uncovered. A fixed quantity of the test solution was allowed to drop onto the surface of the tissue and allowed to soak into the tile. […]
Test pieces were assessed for the level of mould bleaching by an expert panel, using a integer scale running from 0 (no decolorisation) to 6 (complete bleaching). Panel test data for each system was collated and analysed statistically to provide mean scores for each test system. […]

[3] = Bleaching of tea stained cotton cloth (reflectance); conditions: pH 10.0 or higher, vs 1% sodium hypochlorite pH 12
Text: Tea stained cotton (BC-1) cloth is routinely used in the assessment of laundry bleaches. Here the method was adapted as an easy and readily reproducible indicator of the activity of the composition against a common hydrophilic household soil in comparison with a standard hypochlorite bleach.
Lengths of pre-stained BC-1 cotton cloth was cut into square swatches (2 cm×2 cm). For each composition four replicate cloths were placed in the bottom of a clean glass beaker and covered with the cleaning composition at room temperature. After the required contact time (generally 2 or 5 minutes) had elapsed, the cloths were removed from the cleaning solution using tweezers and immediately immersed in distilled water. The cloths were stirred in the water, and the washing procedure repeated twice more using fresh water each time. Washed cloths were then pressed between two filters to remove excess water and placed on fresh filter papers, in the dark, to dry.
Reflectance measurements were carried out on a Spectraflash 400 instrument. ΔR measurements were calculated using ‘40ptspec’ software, using a portion of untreated cloth from the same BC-1 cloth batch as a standard. Results obtained from each of the four replicate test cloths were then statistically analysed to obtain mean ΔR values for each bleach system.

[4] = Stability tests of imine quat in the presence of hydrogen peroxide at various pH (1H NMR integral ratio; permanganate titration); type: physicochemical; conditions: pH 8, without hydrogen peroxide, 2% imine quat, three days after preparation
[5] = target pH 5.5, 0 days storage, sample 6.0% H2O2 + 2.0% imine quat
[6] = target pH 5.5, 148 days storage
[7] = target pH 6.0, 148 days storage
[8] = target pH 6.5, 148 days storage
[9] = target pH 7.0, 148 days storage
[10] = target pH 7.5, 148 days storage

OO [hydrogen peroxide, reference compound]
% hydrogen peroxide [1, 5]: 6.00% | % hydrogen peroxide [1, 6]: 5.99% | % hydrogen peroxide ([1]; target pH 6.0, 0 days storage): 6.00% | % hydrogen peroxide [1, 7]: 5.95% | % hydrogen peroxide ([1]; target pH 6.5, 0 days storage): 6.00% | % hydrogen peroxide [1, 8]: 5.89% | % hydrogen peroxide ([1]; target pH 7.0, 0 days storage): 6.00% | % hydrogen peroxide [1, 9]: 5.84% | % hydrogen peroxide ([1]; target pH 7.5, 0 days storage): 6.00% | % hydrogen peroxide [1, 10]: 5.69% | mould bleaching performance ([2]; pH 5.5): ineffective

C[N+]1=Cc2ccccc2CC1.Cc1ccc(S(=O)(=O)[O-])cc1 [Imine Quat, N-methyl-3,4-dihydroisoquinolinium tosylate]
% of the original amount of imine quat still detectable ([1]; pH 8, in the presence of 6% hydrogen peroxide, 4 hours after preparation): 5% | imine quat detectable ([1]; pH 8, in the presence of 6% hydrogen peroxide, one day after preparation): no imine quat was detectable | % Imine Quat remaining [1, 5]: 100% | % Imine Quat remaining [1, 6]: 93% | % Imine Quat remaining ([1]; target pH 6.0, 0 days storage): 100% | % Imine Quat remaining [1, 7]: 83% | % Imine Quat remaining ([1]; target pH 6.5, 0 days storage): 100% | % Imine Quat remaining [1, 8]: 67% | % Imine Quat remaining ([1]; target pH 7.0, 0 days storage): 100% | % Imine Quat remaining [1, 9]: 43% | % Imine Quat remaining ([1]; target pH 7.5, 0 days storage): 100% | % Imine Quat remaining [1, 10]: 33% | effect of adding Imine Quat on mould bleaching over hydrogen peroxide ([2]; pH 10.5 and 11.0): significant improvement in performance | effect of adding Imine Quat on tea stain bleaching [3]: boosts the performance of hydrogen peroxide to values very close to those observed using hypochlorite | % of the original amount of imine quat remaining [4]: 5%
